Test results: patent US9096581B2, “Fluoroethyl thiamine or salts thereof and application thereof in preparation of anticoccidial drugs” (GUANGZHOU ORIGMOL FEED-ADDITIVE CO., LTD, priority 2012, dated 2015)

Tested on: Eimeria tenella GD strains
Assay: Comparison with other anticoccidial drugs in chickens infected with Eimeria tenella GD (Embodiment 3)
Assay type: in vivo
Design: oocyst value: scale not given here
Conditions: for number of oocysts in cecum / lesion value / average weight gain: 7th day; for lesion value: cecum, scale 0-40; for survival rate / average weight gain / bloody feces scoring: chickens; for bloody feces scoring: 5 days after infecting, score 0-4; for oocyst value: converted per Table 2; for relative weight gain rate: vs non-infected non-drug control
Source text: 1-day-old Lingnan yellow chickens, purchased from Poultry Research Unit, Bureau of Animal Husbandry, Guangdong Academy of Agricultural Sciences, bred under coccidium-free environment, and subjected to experiment after no coccidium oocyst is found in feces through microscopic examination when the chickens are 14 days old. Perfect compound feed for chickens: prepared by Huizhou Yuantai Feed Co. Ltd., and containing no antibacterial or anticoccidial additive.
Eimeria tenella GD strains, having no resistance to various anticoccidial drugs. Breeding and amplifying in one chicken before the experiment, collecting fresh oocysts, sporulating, and preserving at 4° C. for later use.
Weighing the 14-day-old experiment chickens one by one, rejecting emaciated chickens or overweighted chickens, selecting healthy chickens of which the individual body weight difference is within 20 g, and dividing into 6 groups with 30 chickens in each group. Groups 1 and 2 are respectively a non-drug-applied and non-coccidium-killed control group and a coccidium-infected and non-drug-applied control group, and Groups 3-6 are respectively added with different anticoccidial drugs according to Table 4. Feeding with feed containing different drugs on the day of experiment grouping, enabling the chickens to freely take in the feed, and feeding the chickens until the experiment ends.
Except the non-coccidium-infected and non-drug-applied control group, giving each experiment chicken in each experiment group with 2.5×10^5 eimeria tenella sporulated oocysts via the crop on next day of the grouping day. During experiment, observing and recording the spirit, appetite, bloody feces situation, death count and the like of the chickens every day. Performing bloody feces scoring on the chickens in each group 5 days after infecting. On the 7th day, respectively weighing all the chickens in each group, then autopsying them, observing cecum lesions and counting the oocysts in the cecum.
The evaluation standard is the same with Embodiment 2.

Cc1cc(C)nc(O)n1.O=C(Nc1ccc([N+](=O)[O-])cc1)Nc1ccc([N+](=O)[O-])cc1 [nicarbazin]
anticoccidial index (ACI) (125 ppm in feed): 192.9 | number of oocysts in cecum (125 ppm in feed): 0 ×10^6/chicken | lesion value (125 ppm in feed): 0 | survival rate (125 ppm in feed): 100% | average weight gain (125 ppm in feed): 160.5 g/chicken | bloody feces scoring (125 ppm in feed): 0 | oocyst value (125 ppm in feed): 0 | relative weight gain rate (125 ppm in feed): 92.9%

CO[C@@H]1[C@@H](OC)[C@H](C)[C@@](O)(CC(=O)O)O[C@H]1[C@H](C)[C@H]1O[C@@]2(CC[C@@](C)([C@H]3CC[C@@](C)([C@@H]4O[C@@H]([C@H]5O[C@](C)(O)[C@H](C)C[C@@H]5C)C[C@@H]4O[C@@H]4C[C@H](OC)[C@@H](OC)[C@H](C)O4)O3)O2)C[C@H](O)[C@H]1C [maduramicin]
anticoccidial index (ACI) (5 ppm in feed): 186.7 | number of oocysts in cecum (5 ppm in feed): 1.265 ×10^6/chicken | lesion value (5 ppm in feed): 6 | survival rate (5 ppm in feed): 100% | average weight gain (5 ppm in feed): 168.4 g/chicken | bloody feces scoring (5 ppm in feed): 0 | oocyst value (5 ppm in feed): 5 | relative weight gain rate (5 ppm in feed): 97.7%
